In US6617315B1, “Therapeutic compounds” (priority 1996, dated 2003):

Assays:
HCMV strain AD169 = assay: Human Cytomegalovirus (HCMV) assay, antiviral effect by HCMV DNA hybridization; assay type: cell-based; details: HCMV strain AD169 on MRC5 cell monolayers, 96 well plates, 5 days incubation, HCMV DNA by blotting and quantitative specific DNA hybridization
Procedure: Human Cytomegalovirus (HCMV) Assay
(§1) HCMV strain AD169 was grown on monolayers of human embryonic lung cells (MRC5 cells) in 96 well plates. After infection of the cells at a ratio of approximately 0.01 infectious virus particals per cell, the compounds to be tested were added to selected wells at six different concentrations, each in triplicate The same concentrations of compound were also applied to wells containing monolayers of uninfected cells in order to assess compound cytotoxicity. The plates were incubated for 5 days, and the minimum cytotoxic dose was estimated from microscopic examination. The IC50 for antiviral effect was estimated from measurements of HCMV DNA in each well by blotting and quantitative specific DNA hybridization, similar to the method of Gadler. (Antimicrob. Agents Chemother. 1983, 24, 370-374).

[1] = Compound cytotoxicity on uninfected MRC5 cell monolayers; assay type: cell-based, human; details: uninfected MRC5 cell monolayers (human embryonic lung cells); uninfected human embryonic lung cells (MRC5), 5 days incubation, estimated from microscopic examination; read-out: MRC5 tox CC50
Procedure: as §1

MRC5 cells = assay: as above; assay type: cell-based, human
Procedure: as §1

In the case of CC(C)Nc1nc2cc(Cl)c(Cl)cc2n1[C@H]1O[C@@H](CCl)[C@H](O)[C@@H]1O [Example 12, 1-(5-Chloro-5-deoxy-beta-L-ribofuranosyl)-5,6-dichloro-2-isopropylamino-1H-benzimidazole], the melting point is reported as 95 to 97 °C, the IC50 (HCMV strain AD169; Human betaherpesvirus 5, 120 h) is reported as 1.4 µM and the CC50 at 5 days [1] is reported as 30 µM.
Work on CC(C)Nc1nc2cc(Cl)c(Cl)cc2n1[C@@H]1C[C@@H](O)[C@H](CO)O1 [Example 19, 5,6-Dichloro-1-(2-deoxy-beta-L-erythro-pentofuranosyl)-2-isopropylamino-1H-benzimidazole] yielded a melting point of 114 to 115 °C, an IC50 (HCMV strain AD169; Human betaherpesvirus 5, 120 h) of 0.1 µM and a CC50 at 5 days [1] of 100 µM.
In the case of C[C@@H]1O[C@H](n2c(NC3CC3)nc3cc(Cl)c(Cl)cc32)[C@@H](O)[C@H]1O [Example 1, 2-Cyclopropylamino-5,6-dichloro-1-(5-deoxy-beta-L-ribofuranosyl)-1H-benzimidazole], the melting point is reported as 186 to 187 °C, the IC50 (HCMV strain AD169; Human betaherpesvirus 5, 120 h) is reported as 2.1 µM and the CC50 at 5 days [1] is reported as 100 µM.
In the case of CC(C)Nc1nc2c(Cl)cc(Cl)cc2n1[C@H]1O[C@@H](CO)[C@H](O)[C@@H]1O [Example 53, 4,6-Dichloro-2-(isopropylamino)-1-(beta-L-ribofuranosyl)-1H-benzimidazole], the melting point is reported as 212 to 214 °C, the IC50 (HCMV strain AD169; Human betaherpesvirus 5, 120 h) is reported as 0.15 µM and the CC50 at 5 days [1] is reported as 100 µM.
Work on CC(C)Nc1nc2c(Cl)c(Cl)c(Cl)cc2n1[C@H]1O[C@@H](CO)[C@H](O)[C@@H]1O [Example 31, 2-(Isopropylamino)-4,5,6-trichloro-1-(beta-L-ribofuranosyl)-1H-benzimidazole] yielded a melting point of 223 to 224 °C.
Compound CC(C)Nc1nc2c(Cl)cccc2n1[C@H]1O[C@@H](CO)[C@H](O)[C@@H]1O [Example 50, 4-Chloro-2-(isopropylamino)-1-(beta-L-ribofuranosyl)-1H-benzimidazole] has a melting point of 225 to 227 °C.
For CC(C)(C)Nc1nc2cc(Cl)c(Cl)cc2n1[C@H]1O[C@@H](CCl)[C@H](O)[C@@H]1O [Example 14, 2-tert-Butylamino-1-(5-Chloro-5-deoxy-beta-L-ribofuranosyl)-5,6-dichloro-1H-benzimidazole], the melting point was 112 to 114 °C, the IC50 (HCMV strain AD169; Human betaherpesvirus 5, 120 h) was 1 µM and the CC50 at 5 days [1] was 30 µM.
Compound CC(C)Nc1nc2cc(Cl)c(Cl)cc2n1[C@H]1O[C@@H](CO)C[C@@H]1O [Example 16, 5,6-Dichloro-1-(3-deoxy-beta-L-ribofuranosyl)-2-isopropylamino-1H-benzimidazole] has a melting point of 153 to 155 °C, an IC50 (HCMV strain AD169; Human betaherpesvirus 5, 120 h) of 0.2 µM and a CC50 at 5 days [1] of 100 µM.
With C[C@@H]1O[C@H](n2c(Br)nc3cc(Cl)c(Cl)cc32)[C@@H](O)[C@H]1O [Example 4, 2-Bromo-5,6-dichloro-1-(5-deoxy-beta-L-ribofuranosyl)-1H-benzimidazole] the melting point was 136 to 138 °C.
Compound “2-(Isopropylamino)-4,5,6-trichloro-1-(beta-L-erythro-pentofuranosyl)-1H-benzimidazole [Example 58]” has an IC50 (HCMV strain AD169) of 0.15 µM and a CC50 (MRC5 cells) of 20 µM.
CC(C)Nc1nc2cc(Cl)c(Cl)cc2n1[C@H]1O[C@@H](C)[C@H](O)[C@@H]1O [Example 3, 2-Isopropylamino-5,6-dichloro-1-(5-deoxy-beta-L-ribofuranosyl)-1H-benzimidazole] gave a melting point of 103 to 105 °C, an IC50 (HCMV strain AD169; Human betaherpesvirus 5, 120 h) of 0.6 µM and a CC50 at 5 days [1] of 30 µM.
Work on CC(C)Nc1nc2cc(F)c(F)cc2n1[C@H]1O[C@@H](CO)[C@H](O)[C@@H]1O [Example 46, 5,6-Difluoro-2-(isopropylamino)-1-(beta-L-ribofuranosyl)-1H-benzimidazole] yielded a melting point of 156 to 158 °C.
Compound CC(C)Nc1nc2c(Br)c(Cl)c(Cl)cc2n1[C@H]1O[C@@H](CO)[C@H](O)[C@@H]1O [Example 39, 4-Bromo-5,6-dichloro-2-(isopropylamino)-1-(beta-L-ribofuranosyl)-1H-benzimidazole] has a melting point of 221 to 222 °C.
